According to patent US11912693B2, “Compounds for modulating S1P1 activity and methods of using the same” (TREVENA, INC., priority 2017, dated 2024):

Key:
[1] = target: T1, human sphingosine-1-phosphate receptor 1 (S1P1) (Homo sapiens (Human), UniProt P21453); assay: Inhibition of cAMP production (HTRF cAMP HiRange), S1P1 CHO-K1 cells; format: cell-based; conditions: for Emax: CHO-K1, efficacy (SPAN) normalized to fingolimod, read-out: hS1P1 cAMP SPAN
Summary of the method: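 CHO-K1 cells stably co-expressing human S1P1 (C-terminal Prolink tag) and EA-β-arrestin2 were grown in AssayComplete Media 6 at 37° C. and 5% CO2, plated, and incubated overnight. Agonist-driven inhibition of intracellular cAMP was read by TR-FRET with the HTRF cAMP HiRange kit on a PheraStar reader. Potency is pEC50, and efficacy (SPAN) is normalized to fingolimod.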
Target sequence in this assay (P21453 whole entry, looked up): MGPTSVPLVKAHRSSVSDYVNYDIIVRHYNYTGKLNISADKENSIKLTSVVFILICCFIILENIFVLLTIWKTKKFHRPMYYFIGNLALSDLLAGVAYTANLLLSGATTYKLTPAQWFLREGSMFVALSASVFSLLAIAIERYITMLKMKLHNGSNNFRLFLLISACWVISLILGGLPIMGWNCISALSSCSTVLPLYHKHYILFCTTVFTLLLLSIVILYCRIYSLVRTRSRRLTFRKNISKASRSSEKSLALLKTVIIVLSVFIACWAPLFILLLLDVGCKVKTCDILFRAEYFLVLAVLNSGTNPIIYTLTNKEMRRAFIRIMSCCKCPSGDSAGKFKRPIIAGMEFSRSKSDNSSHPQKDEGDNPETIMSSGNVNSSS

[2] = target: T1, human sphingosine-1-phosphate receptor 1 (S1P1); assay: β-Arrestin2 recruitment assay (PathHunter), S1P1 CHO-K1 cells; format: cell-based; conditions: for Emax: CHO-K1, efficacy (SPAN) normalized to fingolimod, read-out: hS1P1 B-arrestin2 SPAN
Summary of the method: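 Enzyme-fragment complementation read-out: agonist-driven β-arrestin2 binding to ProLink-tagged human S1P1 in stable CHO-K1 cells restores β-galactosidase, measured 1 h at room temperature after a 60 min 37° C. compound incubation. Potency as pEC50, efficacy relative to fingolimod (SPAN).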
Target sequence in this assay (P21453 whole entry, looked up): as above
Target sequence in this assay (P32121 whole entry partner, looked up): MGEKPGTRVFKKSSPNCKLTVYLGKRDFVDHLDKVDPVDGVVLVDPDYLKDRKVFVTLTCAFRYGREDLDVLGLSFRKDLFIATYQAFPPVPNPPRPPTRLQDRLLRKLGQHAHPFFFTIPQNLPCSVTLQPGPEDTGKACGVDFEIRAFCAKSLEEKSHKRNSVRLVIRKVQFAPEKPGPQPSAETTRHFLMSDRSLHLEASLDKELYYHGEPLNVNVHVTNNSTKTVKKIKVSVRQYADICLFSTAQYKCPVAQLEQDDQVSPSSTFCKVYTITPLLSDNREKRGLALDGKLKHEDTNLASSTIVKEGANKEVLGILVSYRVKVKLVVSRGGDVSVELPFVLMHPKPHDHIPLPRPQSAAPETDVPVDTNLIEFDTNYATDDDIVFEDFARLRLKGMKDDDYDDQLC

[3] = tested on: paclitaxel induced peripheral neuropathy; assay: Reversal of allodynia induced by paclitaxel in mice (s.c. or p.o., von Frey frequency method); format: in vivo, c57bl/6 mice; conditions: Mus musculus; for inhibition in vivo at 1 mg/kg: sc, 0.5 h, 1 mg/kg s.c., tested 30 min after dosing, read-out: Screen @ 1 mg/kg sc (% MPE); for inhibition in vivo at 3 mg/kg: po, 1 h, 3 mg/kg p.o., tested 60 min after dosing, read-out: Screen @ 3 mg/kg po (% MPE)
Protocol: Compounds were tested for efficacy in mouse models of chemotherapy induced peripheral neuropathy. […] For these studies […]/6 mice are habituated to the test environment and baseline measurements of pain sensitivity are assessed. To determine mechanical responses, the threshold for responses to punctate mechanical stimuli (mechanical hyperalgesia) was tested according to the frequency method. In brief, the plantar surface of the animal hindpaw was stimulated with a single von Frey monofilament (0.4 g) for approximately 1-2 seconds. If there was a withdrawal response, it was recorded as a positive response. A response was defined as a lifting or shaking of the paw upon stimulation. This was repeated ten times for each mouse. The final measurement for each mouse is the % non-response to stimulation for the ten trials. The % non-response to stimulation is converted to a % MPE. For paclitaxel induced peripheral neuropathy, a series of injections of PAC (6 mg/kg, i.p.) on days 1, 3, 5 and 7 is used to induce peripheral neuropathy. After approximately 14 days from the initiation of PAC injections, animals are re-assessed for mechanical sensitivity. […] On test day animals are dosed with compounds either subcutaneously or orally and tested for mechanical response by the frequency method either 30 min (s.c.) or 60 min (p.o.) after drug administration. Data is presented as a % MPE. For oxaliplatin induced peripheral neuropathy, a series of injections of OXA (4 mg/kg, i.p.) on days 1-5 is used to induce peripheral neuropathy. After approximately 14 days from the initiation of PAC injections, animals are re-assessed for mechanical sensitivity. […] On test day animals are dosed with compounds subcutaneously and tested for mechanical response by the frequency method 30 min after drug administration. Data is presented as a % MPE. One or more of the compounds show reversal of chemotherapeutic induced peripheral neuropathy.

[4] = inhibition of cAMP production, S1P1 CHO-K1 cells
[5] = β-arrestin2 recruitment, S1P1 CHO-K1 cells

Row | SMILES | hS1P1 cAMP pEC50 [1, 4] | hS1P1 B-arrestin2 pEC50 [2, 5] | Emax [1] [%] | Emax [2] [%] | EC50 ([1]; inhibition of cAMP production, S1P1 CHO-K1 cells, read-out: hS1P1 cAMP pEC50 (converted)) [µM] | EC50 ([2]; β-arrestin2 recruitment, S1P1 CHO-K1 cells, read-out: hS1P1 B-arrestin2 pEC50 (converted)) [µM] | inhibition in vivo at 1 mg/kg [3] [%] | inhibition in vivo at 3 mg/kg [3] [%]
1 | CCC1(CC)CC(=O)c2cc(-c3nc(-c4ccc(S(N)(=O)=O)cc4)no3)ccc2O1 [Compound 106, 4-(5-(2,2-diethyl-4-oxochroman-6-yl)-1,2,4-oxadiazol-3-yl)benzenesulfonamide] | >6.5 | >5 | > 75 | > 75 |  |  | < 50 | 
2 | CC(C)Nc1ccc(-c2nc(-c3ccc4c(c3)CC(=O)N4)no2)cc1C#N [Compound 107, 2-(isopropylamino)-5-(3-(2-oxoindolin-5-yl)-1,2,4-oxadiazol-5-yl)benzonitrile] | >6.5 | >5 | > 75 | > 75 |  |  | < 50 | 
3 | N#Cc1cc(-c2nc(-c3ccc4c(c3)CC(=O)N4)no2)ccc1NCC1CC1 [Compound 210, 2-((cyclopropylmethyl)amino)-5-(3-(2-oxoindolin-5-yl)-1,2,4-oxadiazol-5-yl)benzonitrile] | >6.5 | >5 | > 75 | > 75 |  |  | < 50 | 
4 | COc1ccc(-c2noc(-c3ccc4c(c3)nnn4CC(C)(C)O)n2)c(C)c1 [Compound 647, 1-{5-[3-(4-methoxy-2-methylphenyl)-1,2,4-oxadiazol-5-yl]-1H-1,2,3-benzotriazol-1-yl}-2-methylpropan-2-ol] | >6.5 | >5 | > 75 | > 75 |  |  |  | 
5 | N#Cc1cc(-c2nc(-c3ccc4[nH]c(=O)oc4c3)no2)ccc1NCC1CC1 [Compound 726, 2-(cyclopropylmethylamino)-5-[3-(2-oxo-3H-1,3-benzoxazol-6-yl)-1,2,4-oxadiazol-5-yl]benzonitrile] |  |  |  |  |  |  |  | > 50
6 | N#Cc1cc(-c2nc(-c3ccc4c(c3)CNC4=O)no2)ccc1NCC1CC1 [Compound 727, 2-((cyclopropylmethyl)amino)-5-(3-(1-oxoisoindolin-5-yl)-1,2,4-oxadiazol-5-yl)benzonitrile] |  |  |  |  |  |  |  | > 50
7 | CC(C)Nc1ccc(-c2nc(-c3ccc4[nH]c(=O)[nH]c4c3)no2)cc1C#N [Compound 728, 2-(isopropylamino)-5-(3-(2-oxo-2,3-dihydro-1H-benzo[d]imidazol-5-yl)-1,2,4-oxadiazol-5-yl)benzonitrile] |  |  |  |  |  |  |  | > 50
8 | N#Cc1cc(-c2nc(-c3ccc4[nH]c(=O)[nH]c4c3)no2)ccc1NCC1CC1 [Compound 729, 2-((cyclopropylmethyl)amino)-5-(3-(2-oxo-2,3-dihydro-1H-benzo[d]imidazol-5-yl)-1,2,4-oxadiazol-5-yl)benzonitrile] |  |  |  |  |  |  |  | > 50
9 | N#Cc1cc(-c2nnc(-c3ccc4cnccc4c3)o2)ccc1NCC(F)F [Compound 733, 2-[(2,2-difluoroethyl)amino]-5-[5-(isoquinolin-6-yl)-1,3,4-oxadiazol-2-yl]benzonitrile] |  |  |  |  |  |  |  | > 50
10 | CC(C)Nc1ccc(-c2nnc(-c3ccc4cnccc4c3)o2)cc1C#N [Compound 735, 5-[5-(isoquinolin-6-yl)-1,3,4-oxadiazol-2-yl]-2-[(propan-2-yl)amino]benzonitrile] |  |  |  |  |  |  |  | < 50
11 | CC(C)Nc1ccc(-c2nnc(-c3ccc4ncccc4c3)o2)cc1C#N [Compound 736, 2-[(propan-2-yl)amino]-5-[5-(quinolin-6-yl)-1,3,4-oxadiazol-2-yl]benzonitrile] |  |  |  |  |  |  |  | > 50

Further lines, with some results ahead:

Row | hS1P1 cAMP pEC50 [1, 4] | hS1P1 B-arrestin2 pEC50 [2, 5] | Emax [1] [%] | Emax [2] [%] | EC50 ([1]; inhibition of cAMP production, S1P1 CHO-K1 cells, read-out: hS1P1 cAMP pEC50 (converted)) [µM] | EC50 ([2]; β-arrestin2 recruitment, S1P1 CHO-K1 cells, read-out: hS1P1 B-arrestin2 pEC50 (converted)) [µM] | SMILES | inhibition in vivo at 1 mg/kg [3] [%] | inhibition in vivo at 3 mg/kg [3] [%]
12 | >6.5 | >5 |  |  |  |  | CC(C)n1nnc2cc(-c3noc(-c4ccccc4C(F)(F)F)n3)ccc21 [Compound 33, 3-(1-isopropylbenzotriazol-5-yl)-5-[2-(trifluoromethyl)phenyl]-1,2,4-oxadiazole] | < 50 | 
13 | >6.5 | >5 | > 75 | > 75 |  |  | CCC1(CC)CC(=O)c2cc(-c3nc(-c4ccc(C(N)=O)cc4)no3)ccc2O1 [Compound 179, 4-(5-(2,2-diethyl-4-oxochroman-6-yl)-1,2,4-oxadiazol-3-yl)benzamide] | > 50 | > 50
14 | >6.5 | >5 | > 75 | > 75 |  |  | C=CCNc1ccc(-c2nc(-c3ccc4c(c3)CC(=O)N4)no2)cc1C#N [Compound 224, 2-(allylamino)-5-(3-(2-oxoindolin-5-yl)-1,2,4-oxadiazol-5-yl)benzonitrile] | > 50 | 
15 | <6.5 | <5 |  |  |  |  | CCC1(CC)CC(=O)c2cc(-c3nc(-c4ccc5c(c4)nnn5C(C)C)no3)ccc2O1 [Compound 305, 2,2-diethyl-6-(3-(1-isopropyl-1H-benzo[d][1,2,3]triazol-5-yl)-1,2,4-oxadiazol-5-yl)chroman-4-one] | > 50 | 
16 | >6.5 | >5 |  |  |  |  | Cc1ccccc1-c1noc(-c2ccc3c(c2)nnn3C2CCC2)n1 [Compound 306, 1-cyclobutyl-5-[3-(2-methylphenyl)-1,2,4-oxadiazol-5-yl]-1H-1,2,3-benzotriazole] | < 50 | 
17 | <6.5 | <5 | < 75 | < 75 |  |  | Cc1nccnc1-c1nc(-c2ccc3c(c2)nnn3C(C)(C)CO)no1 [Compound 641, 2-methyl-2-(5-(5-(3-methylpyrazin-2-yl)-1,2,4-oxadiazol-3-yl)-1H-benzo[d][1,2,3]triazol-1-yl)propan-1-ol] |  | 
18 | <6.5 | <5 |  |  |  |  | CC(C)(CO)n1nnc2cc(-c3noc(-c4ccc5nc[nH]c5c4)n3)ccc21 [Compound 642, 2-(5-(5-(1H-benzo[d]imidazol-6-yl)-1,2,4-oxadiazol-3-yl)-1H-benzo[d][1,2,3]triazol-1-yl)-2-methylpropan-1-ol] |  | 
19 | <6.5 | <5 | > 75 | < 75 |  |  | CC(C)(CO)n1nnc2cc(-c3noc(-c4cccnc4F)n3)ccc21 [Compound 643, 2-(5-(5-(2-fluoropyridin-3-yl)-1,2,4-oxadiazol-3-yl)-1H-benzo[d][1,2,3]triazol-1-yl)-2-methylpropan-1-ol] |  | 
20 | <6.5 | <5 | > 75 | > 75 |  |  | CC(C)(CO)n1nnc2cc(-c3noc(-c4cnccc4C(F)(F)F)n3)ccc21 [Compound 644, 2-methyl-2-(5-(5-(4-(trifluoromethyl)pyridin-3-yl)-1,2,4-oxadiazol-3-yl)-1H-benzo[d][1,2,3]triazol-1-yl)propan-1-ol] |  | 
21 | <6.5 | <5 |  |  |  |  | O=C1CNc2ccc(-c3nc(-c4cn[nH]c4)no3)cc2N1 [Compound 645, 7-[3-(1H-pyrazol-4-yl)-1,2,4-oxadiazol-5-yl]-1,2,3,4-tetrahydroquinoxalin-2-one] |  | 
22 |  |  | < 75 | > 75 | > 0.316 | > 10 | CC(C)n1nnc2cc(-c3nc(-c4cn[nH]c4)no3)ccc21 [Compound 646, 1-(propan-2-yl)-5-[3-(1H-pyrazol-4-yl)-1,2,4-oxadiazol-5-yl]-1H-1,2,3-benzotriazole] |  | 
